Measurements as given in patent US9868748B2, “Thiazolopyrrolidine inhibitors of ROR- γ” (Vitae Pharmaceuticals, Inc., priority 2013, dated 2018).

Biological target: recombinant RORγ Ligand Binding Domain (LBD) protein (Homo sapiens (Human), UniProt P51449)
Assay: Radio-Ligand RORγ Binding Assay (Assay 1)
Details: competition with 25-hydroxy [26,27-3H]-cholesterol, SPA; Table 9; read-out: RORγ Binding Ki Range*
Experimental: Radio-Ligand RORγ Binding Assay (Assay 1)
Compounds of the present invention were tested for ability to bind to RORγ in a cell-free competition assay with commercially available radio-ligand (RL), 25-hydroxy [26,27-^3H]— cholesterol (PerkinElmer, Cat. # NET674250UC), for a ligand binding site on a recombinant RORγ Ligand Binding Domain (LBD) protein expressed as a 6×His-Glutathione-S-Transferase (GST) fusion (“6×His” disclosed as SEQ ID NO: 2). The assay was performed in 96-well SPA plates (PerkinElmer, Cat. #1450-401) in 50 mM HEPES buffer, pH 7.4, containing 150 mM NaCl, 5 mM MgCl2, 10% (v/v) glycerol, 2 mM CHAPS, 0.5 mM β-octylglucopyranoside and 5 mM DTT. Tested compounds were dissolved in DMSO, and semi-log (3.162×) serial dilutions of the compounds were prepared in the same solvent. Two μL of the DMSO solutions were mixed with 28 μL of 8.6 nM 25-hydroxy [26,27-^3H]— cholesterol and 50 μL of 24 nM RORγ LBD. The plate was shaken at 700 rpm for 20 min and incubated for 10 min at rt, after which 40 μL of poly-Lys YSi SPA beads (PerkinElmer, Cat. # RPNQ0010) were added to achieve 50 μg of the beads per well. The plate was incubated on an orbital shaker for 20 min and then for 10 min without agitation at rt. SPA signal for tritium beta radiation was registered on PerkinElmer Microbeta plate reader. Percent inhibition values were calculated based on the high signal obtained with DMSO control and the low signal observed with 10 μM standard RORγ inverse agonist T0901317 (SigmaAldrich, Cat. # T2320). The percent inhibition vs. concentration data were fit into a four-parameter model, and […] values were calculated from the fit as the concentrations corresponding to the inflection points on the dose-response curves. Inhibitory constants (Ki) were calculated using the following equation, where [RL] is the concentration in the assay and KD is a dissociation constant of 25-hydroxy [26,27-^3H]-cholesterol: […]

Chain of recombinant RORγ Ligand Binding Domain (LBD) protein (P51449 269-508): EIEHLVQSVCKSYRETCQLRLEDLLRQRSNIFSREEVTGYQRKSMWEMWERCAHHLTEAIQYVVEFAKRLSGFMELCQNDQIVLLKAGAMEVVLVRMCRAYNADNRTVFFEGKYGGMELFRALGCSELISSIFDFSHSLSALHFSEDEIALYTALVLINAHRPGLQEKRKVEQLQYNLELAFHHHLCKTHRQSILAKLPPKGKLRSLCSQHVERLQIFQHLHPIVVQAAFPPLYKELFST

Compound | Ki [nM]
CC(C)[C@H]1c2nc(NC(=O)Cc3ccc(S(C)(=O)=O)cc3)sc2CN1Cc1ccc(=O)n(C(F)F)n1 | > 1000
CCS(=O)(=O)c1cnc(CC(=O)Nc2nc3c(s2)CN(Cc2ccc(C#N)cc2)[C@@H]3C(C)C)nc1 | > 1000
COC(=O)c1cnc(N2Cc3sc(NC(=O)Cc4ccc(S(C)(=O)=O)cc4)nc3[C@@H]2C(C)C)nc1 | > 1000
Cc1cc(C(F)(F)F)nc(N2Cc3sc(Cc4ccc(C#N)cc4C)nc3[C@H]2C(C)C)n1 | > 1000
CCS(=O)(=O)c1ccc(CNC(=O)c2nc3c(s2)CN(c2ncc(CO)c(C(F)(F)F)n2)[C@H]3C(C)C)cc1 | > 1000
CCS(=O)(=O)c1ccc(CC(=O)Nc2nc3c(s2)CN(c2ncc(-c4ccc(=O)n(C)c4)cn2)[C@H]3C(C)C)cc1 | > 1000
CCS(=O)(=O)c1ccc(CC(=O)Nc2nc3c(s2)CN(c2ncc(CO)c(C(F)(F)F)n2)[C@H]3C(C)C)cc1 | 100 to 1000
CC[C@@H]1c2nc(NC(=O)Cc3ccc(S(C)(=O)=O)cc3)sc2CN1Cc1ccc(OC(F)(F)F)cc1F | 100 to 1000
CC(C)[C@H]1c2nc(NC(=O)Cc3ccc(S(C)(=O)=O)cc3)sc2CN1c1ncc(C#N)c(Cl)n1 | 100 to 1000
CCOC(=O)c1cnc(N2Cc3sc(NC(=O)Cc4ccc(S(=O)(=O)CC)cc4)nc3C2(C)C)nc1C(F)(F)F | 100 to 1000
CCS(=O)(=O)c1cnc(CC(=O)Nc2nc3c(s2)CN(Cc2ccc(C(F)(F)F)cc2)[C@@H]3C(C)C)nc1 | > 1000
CCS(=O)(=O)c1ccc(CC(=O)Nc2nc3c(s2)CN(C[C@H]2CC[C@H](C(=O)O)CC2)[C@H]3C(C)C)cc1 | 100 to 1000
CC(C)[C@H]1c2nc(NC(=O)CC3CCS(=O)(=O)CC3)sc2CN1Cc1ccc(Cl)cc1 | 100 to 1000
CCS(=O)(=O)c1ccc(CC(=O)Nc2nc3c(s2)CN(Cc2ccc(C#N)cn2)[C@@H]3C(C)C)cc1 | 100 to 1000
CCOC(=O)c1cnc(N2Cc3sc(NC(=O)Cc4ccc(S(C)(=O)=O)cc4)nc3[C@@H]2C(C)C)nc1C(F)(F)F | 100 to 1000
CCS(=O)(=O)c1ccc(CNC(=O)c2nc3c(s2)CN(c2ncc(C(F)(F)F)cn2)[C@H]3C(C)C)cc1 | > 1000
Cc1cc(C(F)(F)F)nc(N2Cc3sc(Cc4ccc(-c5nn[nH]n5)cc4C)nc3[C@H]2C(C)C)n1 | 100 to 1000
CCS(=O)(=O)c1ccc(CC(=O)Nc2nc3c(s2)CN(Cc2ccc(C(F)(F)F)cc2)[C@@]3(C)C(C)C)cc1 | 100 to 1000
CCS(=O)(=O)c1ccc(CC(=O)Nc2nc3c(s2)CN(c2ncc(-c4ccc(=O)n(C)c4)s2)[C@H]3C(C)C)nc1 | > 1000

Compound | Ki [nM]
Cc1nnc(-c2ccc(CC(=O)Nc3nc4c(s3)CN(Cc3ccc(Cl)cc3)[C@H]4C(C)C)cc2)o1 | 100 to 1000
CC(C)[C@@H]1c2nc(NC(=O)Cc3ccc(S(C)(=O)=O)cc3)sc2CN1C(C)c1ccc(C#N)cc1 (stereo partly drawn) | 100 to 1000
CC(C)[C@H]1c2nc(NC(=O)Cc3ccc(S(C)(=O)=O)cc3)sc2CN1Cc1ccn(C2CC2)c(=O)c1 | 100 to 1000
CCS(=O)(=O)c1ccc(CC(=O)Nc2nc3c(s2)CN(Cc2nccc(C(F)(F)F)n2)[C@@H]3C(C)C)cc1 | 100 to 1000
CC(C)[C@H]1c2nc(C(=O)NCc3ccc(S(C)(=O)=O)cc3)sc2CN1Cc1ccc2nn[nH]c2c1 | 100 to 1000
Cc1ncc(CN2Cc3sc(NC(=O)Cc4ccc(S(C)(=O)=O)cc4)nc3[C@@H]2C(C)C)cn1 | 100 to 1000
Cc1ccc(CN2Cc3sc(NC(=O)Cc4ccc(S(C)(=O)=O)cc4)nc3[C@H]2C(C)C)cc1 | 100 to 1000
CCS(=O)(=O)c1ccc(CC(=O)Nc2nc3c(s2)CN(CC2CCC(F)(F)CC2)[C@H]3C(C)C)cc1 | < 100
Cc1cc(C(F)(F)F)nc(N2Cc3sc(-c4ccc(C(F)(F)F)nc4)nc3[C@H]2C(C)C)n1 | > 1000
CC1(C)c2nc(NC(=O)Cc3ccc(S(C)(=O)=O)cc3)sc2CN1c1ncc(C(F)(F)F)cn1 | 100 to 1000
CCS(=O)(=O)c1ccc(CNC(=O)c2nc3c(s2)CN(Cc2ccc(-c4nnn[nH]4)cc2)[C@H]3C(C)C)cc1 | 100 to 1000
CCS(=O)(=O)c1ccc(CC(=O)Nc2nc3c(s2)CN(Cc2cc[n+]([O-])cc2)[C@H]3C(C)C)cc1 | 100 to 1000
CC(C)[C@@H]1c2nc(NC(=O)Cc3ccc(S(C)(=O)=O)cc3)sc2CN1Cc1ccc(C#N)cc1 | 100 to 1000
CCS(=O)(=O)c1ccc(CC(=O)Nc2nc3c(s2)CN([C@@H](C)Cc2ccc(F)cc2)[C@@H]3C(C)C)cc1 (single isomer, unassigned) | 100 to 1000
CC(C)[C@H]1c2nc(C(=O)NCc3ccc(S(C)(=O)=O)cc3)sc2CN1Cc1ncc(Cl)cn1 | 100 to 1000
CC(C)[C@H]1c2nc(NC(=O)Cc3ccc(S(C)(=O)=O)cc3)sc2CN1Cc1ncc(Cl)cn1 | 100 to 1000
CCS(=O)(=O)c1ccc(CNC(=O)c2nc3c(s2)CN(c2nccc(C(F)(F)F)n2)[C@H]3C(C)C)cc1 | 100 to 1000
CC(C)[C@H]1c2nc(C(=O)NCc3ccc(S(C)(=O)=O)cc3)sc2CN1Cc1cnc(C(F)(F)F)nc1 | 100 to 1000
CCS(=O)(=O)c1ccc(CC(=O)Nc2nc3c(s2)CN(C[C@@H]2CC[C@@H](C(F)(F)F)NC2)[C@H]3C(C)C)nc1 (single isomer, unassigned) | 100 to 1000

Compound | Ki [nM]
CCS(=O)(=O)c1ccc(CC(=O)Nc2nc3c(s2)CN(Cc2cnc(N)nc2)[C@H]3C(C)C)cc1 | 100 to 1000
CCS(=O)(=O)c1ccc(CC(=O)Nc2nc3c(s2)CN(c2ncc(C(F)(F)F)cn2)C3(C)C)cc1 | 100 to 1000
CCS(=O)(=O)c1ccc(CC(=O)Nc2nc3c(s2)CN(CC2CCNC(=O)C2)[C@H]3C(C)C)cc1 (stereo partly drawn) | 100 to 1000
CC(C)[C@H]1c2nc(NC(=O)Cc3ccc(S(C)(=O)=O)cc3)sc2CN1c1nc(Cl)ncc1C#N | 100 to 1000
CC[C@@H]1c2nc(NC(=O)Cc3ccc(S(=O)(=O)CC)cc3)sc2CN1Cc1ccc(F)cn1 | 100 to 1000
CC[C@@H]1c2nc(NC(=O)Cc3ccc(S(C)(=O)=O)cc3)sc2CN1Cc1ccc(OC(F)(F)F)nc1 | 100 to 1000
Cc1ccc(CN2Cc3sc(NC(=O)Cc4ccc(S(C)(=O)=O)cc4)nc3[C@@H]2C(C)C)nn1 | 100 to 1000
CCS(=O)(=O)c1ccc(CC(=O)Nc2nc3c(s2)CN([C@@H](C)Cc2ccccc2)[C@@H]3C(C)C)cc1 | 100 to 1000
CC(C)[C@H]1c2nc(C(=O)NCc3ccc(S(C)(=O)=O)cc3)sc2CN1Cc1ccn(C)c(=O)c1 | > 1000
CC[C@@H]1c2nc(NC(=O)Cc3ccc(S(C)(=O)=O)cc3)sc2CN1[C@@H](C)c1ccc(OC(F)(F)F)cc1 (single isomer, unassigned) | 100 to 1000
CCS(=O)(=O)c1ccc(CC(=O)Nc2nc3c(s2)CN(Cc2ccc(C(F)(F)F)nc2)[C@@H]3C(C)C)cc1 | 100 to 1000
CCS(=O)(=O)c1ccc(CC(=O)Nc2nc3c(s2)CN(CC2CCOCC2)[C@@H]3C(C)C)cc1 | 100 to 1000
CC(C)[C@H]1c2nc(C(=O)NCc3ccc(S(C)(=O)=O)cc3)sc2CN1Cc1ccc(C#N)cn1 | 100 to 1000
CC(C)[C@@H]1c2nc(NC(=O)Cc3ccc(S(C)(=O)=O)cc3)sc2CN1[C@@H](C)c1ccc(C(F)(F)F)cc1 (single isomer, unassigned) | 100 to 1000
CCS(=O)(=O)c1ccc(CC(=O)Nc2nc3c(s2)CN(C[C@H]2C[C@H](C(N)=O)C2)[C@H]3C(C)C)cc1 (relative stereo) | 100 to 1000
CC(C)[C@H]1c2nc(NC(=O)Cc3ccc(F)cc3F)sc2CN1Cc1ccc(Cl)cc1 | 100 to 1000
CC(C)[C@H]1c2nc(NC(=O)Cc3ccn4ccnc4c3)sc2CN1Cc1ccc(C(F)(F)F)cc1 | 100 to 1000
CC(C)[C@H]1c2nc(NC(=O)Cc3ccc(S(C)(=O)=O)cc3)sc2CN1Cc1ncc(Cl)cc1F | 100 to 1000
COc1cc(CN2Cc3sc(NC(=O)Cc4ccc(C#N)cc4)nc3[C@@H]2C(C)C)ccc1C#N | < 100
